Literature values, collected in patent US11058735B2, “Formulations containing pomegranate seed oil, rosa canina fruit oil and inula viscosa oleoresin or extract” (POMEGA, INC., priority 2014, dated 2021).

Conditions: compared with grape seed extract, background statement

## CCCC\C=C/C=C/C=C\CCCCCCCC(=O)O [Punicic acid]
  antioxidant power relative to grape seed extract: approximately 10 times
